In PMC3744471, “Mitochondria Are the Target Organelle of Differentiation-Inducing Factor-3, an Anti-Tumor Agent Isolated from Dictyostelium Discoideum” (PLoS ONE, 2013):

Key:
Type in all cases: cell-based, human
HeLa cells [1] = test: Withdrawal of BODIPY-DIF-3: recovery of cell growth and mitochondrial morphology; conditions: 20 µM 3 days, then 2 days DMSO
Protocol: In the assay of the effect of withdrawal of BODIPY-DIF-3 on cell growth (Figure 6A), HeLa cells were incubated for 3 days with 2 ml of DMEM-FBS containing 20 µM BODIPY-DIF-3 in 35-mm tissue culture dishes (Becton Dickinson, Franklin Lakes, NJ, USA) (5×10^3 cells/dish), washed 2 times with 2 ml of PBS(–), and further incubated for 2 days with 2 ml of DMEM-FBS containing 0.2% DMSO or 20 µM BODIPY-DIF-3; meanwhile, control cells were incubated for 5 days with 2 ml of DMEM-FBS containing 0.2% DMSO. Relative cell number was assessed as described above, and all experiments were performed in triplicate.

HeLa cells [2] = test: Fluorescence microscopy: membrane permeability and cellular localization; conditions: 20 µM
Protocol: (§1) HeLa cells were cultured for 1–2 days with 2 ml DMEM-FBS in 35-mm tissue culture dishes (Becton Dickinson), washed twice with PBS(–), and then fixed for 15–20 min at room temperature with 2 ml of 3.7% (v/v) formaldehyde in PBS(–). The cells were then washed twice with PBS(–) and used for staining with the fluorescent probes. Alternatively, the fixed cells were treated for 15–20 min with 2 ml of 0.1% (w/v) Triton X-100 in PBS(–), washed twice with PBS(–), and used for staining with the fluorescent probes. […]
(§2) For high magnification multi-color imaging, cells were incubated for the appropriate times with 2 ml of DMEM-FBS (HeLa and 3T3-L1) or MEM-α-FBS (LM8) containing various compounds in 35-mm plastic dishes (tissue culture treated µ-Dish; ibidi, Martinsried, Germany). The cells were washed twice with 2 ml of PBS(–), submerged in 2 ml of Hepes buffer (pH 7.4), and observed at room temperature with a Keyence BZ-9000 fluorescence microscope (Osaka, Japan) equipped with an oil immersion 100× lens (CFI Plan Apo VC100XH) and multi-filters that can distinguish four fluorescent probes simultaneously. […]

[3] = as above; conditions: human, pH 7.4, HeLa, read-out: Time to reach maximal level in cells
Protocol: as §1, §2

- Time to penetrate the cell membrane (HeLa cells [2]): ≤ 2 min
- Tmax at 20 µM [3]: ≤ 30 min
SMILES: CCCCCC(=O)c1c(O)cc(OCCCCNC(=O)CCC2=[N+]3C(=Cc4c(C)cc(C)n4[B-]3(F)F)C=C2)c(Cl)c1O [BODIPY-DIF-3]
- Reversibility of action after withdrawal at Day 3 (HeLa cells [1]): reversible
